# Assay results as given in patent US5854388A, “Angiotensin IV peptides and receptor” (Washington State University Research Foundation, priority 1994, dated 1998).
# Assay: Stability of angiotensin peptides in binding buffer (reverse phase HPLC)
# Type: physicochemical
# Settings: 4 h at 37° C.
# Procedure: Binding studies were carried out in a buffer (below) containing an extensive cocktail of inhibitors that was designed to minimize metabolism of both the receptor and the test ligand, i.e., the buffer contained 5 mM EDTA, 0.2% BSA, […] Bestatin, 50 μM Plummer's inhibitor, and 100 μM PMSF.
structure (smiles),measurement,value
"CC[C@H](C)[C@H](NC(=O)[C@H](Cc1ccc(O)cc1)NC(=O)[C@@H](N)C(C)C)C(=O)N[C@@H](Cc1cnc[nH]1)C(=O)N1CCC[C@H]1C(=O)N[C@@H](Cc1ccccc1)C(=O)O [AIV, Val1 Tyr2 Ile3 His4 Pro5 Phe6]",hydrolysis in binding buffer,less than 10%
